These results are taken from patent publication US20140308244A1, “Combination Therapy for Treatment of Inflammatory Demyelinating Disease” (The Board of Trustees of the Leland Stanford Junior …, priority 2011, published 2014).

For test [1], the system named is experimental autoimmune encephalomyelitis (EAE). Particulars: mouse model for multiple sclerosis; Platten et al, 2009, PNAS 106:14948; cited from earlier work.
For test [2], the system named is EAE. Nature of the test: EAE relapse model: Rebif and/or Lisinopril treatment initiated at peak of disease. The test is classed as in vivo. Conditions: Rebif daily 0.25 μg/mouse intraperitoneally, Lisinopril 1 mg/kg/day orally.
Method: FIG. 2 is a graph of disease scores for EAE, when combination treatment of Rebif and Lisinopril is initiated at the peak of disease.
In this instance, Rebif was given daily (0.25 μg/mouse, intraperitoneally), and Lisinopril was given daily (1 mg/kg/day, orally).

Regarding `NCCCC[C@H](N[C@@H](CCc1ccccc1)C(=O)O)C(=O)N1CCC[C@H]1C(=O)O` [Lisinopril], the “efficacy in treating EAE” value in test [1] was “effective”. The “Average Relapse Rate” value came to 0.7 in test [2] and 0.70 in test [2] (listed as PBS/Lisinopril).
